Test [1] deals with T1, CFTR in G551D/F508del primary CF hBE cells (Homo sapiens, UniProt P13569, G551D).
T1 construct: Primary cystic fibrosis human bronchial epithelial (CF hBE) cells were expanded and cultured; endogenous in cells; host or cells: primary CF human bronchial epithelial cells, genotype G551D/F508del
In words: Ussing chamber electrophysiology assay of CFTR potentiation in G551D/F508del CF bronchial epithelial cells (35° C.). The settings on record: G551 D/F508del Ussing chamber assay at 35 degrees Celsius. Type of test: cell-based. An excerpt: • SHELXTL, Version 5.1, Bruker AXS, 1997. • PLATON, A. L. Spek, J. Appl. Cryst. 2003, 36, 7-13. • MERCURY, C. F. Macrae, P. R. Edington, P. McCabe, E. Pidcock, G. P. Shields, R. Taylor, M. Towler and J. van de Streek, J. Appl. Cryst. 39, 453-457, 2006. • OLEX2, Dolomanov, O. V.; Bourhis, L. J.; Gildea, R. J.; Howard, J. A. K.; Puschmann, H., (2009). J. Appl. Cryst., 42, 339-341. • R. W. W. Hooft et al. J. Appl. Cryst. (2008). 41. 96-103. • H. D. Flack, Acta Cryst. 1983, A39, 867-881. Using Chamber Electrophysiology Assay of CFTR Potentiation in CF Bronchial Epithelial Cells
Primary cystic fibrosis human bronchial epithelial (CF hBE) cells were expanded and cultured according to published methods (Neuberger et al., Ch. 4 of Cystic Fibrosis, Methods in Molecular Biology vol. 741, pp. 39-54 (2011)). Well-differentiated cells (>30 days at air/liquid interface) on Snapwell filters (Corning Costar, cat. no. 3801) were mounted in Ussing chambers (Physiologic Instruments, Inc., San Diego, CA). […] HEPES buffered physiological saline (composition (in mM): 137 NaCl, 4 KCl, 1 MgCl2, 1.8 CaCl2), 10 HEPES Na) was used in both apical and basolateral chambers. Chambers were bubbled with air to promote mixing and the voltage was clamped to zero. Amiloride (30 uM), forskolin (10 uM), test compound (4 increasing concentrations), and CFTRinh-172 (20 uM) were added sequentially with 20-25 minutes between additions. Short-circuit currents were acquired and analyzed using LabScribe2. Test compound responses were scaled relative to responses for DMSO (0%) and the maximal response of a positive control potentiator (100%).

Test [2] concerns the target T2, CFTR in F508del/F508del primary CF hBE cells (Homo sapiens, UniProt P13569, DEL508-508).
T2 construct: Primary cystic fibrosis human bronchial epithelial (CF hBE) cells were expanded and cultured; endogenous in cells; host or cells: primary CF human bronchial epithelial cells, genotype F508del/F508del
Nature of the test: Ussing chamber electrophysiology assay of CFTR potentiation in F508del/F508del CF bronchial epithelial cells (27° C.). Type of test: cell-based. The method in brief:
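Short-circuit current was recorded under zero-voltage clamp across primary CF bronchial epithelia cultured >30 days at air/liquid interface, bathed apically and basolaterally in HEPES-buffered saline. Sequential additions: amiloride (30 uM), forskolin (10 uM), compound at 4 increasing levels, CFTRinh-172 (20 uM). Responses normalised between DMSO (0%) and maximal positive-control potentiator (100%).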

Test [3] deals with T3, recombinant F508del V470 CFTR in Fischer rat thyroid (FRT) cells (Homo sapiens, UniProt P13569, DEL508-508).
T3 construct: expressed in transfected cells
T3 sequence (P13569 with tags, fused parts or gaps DEL508-508): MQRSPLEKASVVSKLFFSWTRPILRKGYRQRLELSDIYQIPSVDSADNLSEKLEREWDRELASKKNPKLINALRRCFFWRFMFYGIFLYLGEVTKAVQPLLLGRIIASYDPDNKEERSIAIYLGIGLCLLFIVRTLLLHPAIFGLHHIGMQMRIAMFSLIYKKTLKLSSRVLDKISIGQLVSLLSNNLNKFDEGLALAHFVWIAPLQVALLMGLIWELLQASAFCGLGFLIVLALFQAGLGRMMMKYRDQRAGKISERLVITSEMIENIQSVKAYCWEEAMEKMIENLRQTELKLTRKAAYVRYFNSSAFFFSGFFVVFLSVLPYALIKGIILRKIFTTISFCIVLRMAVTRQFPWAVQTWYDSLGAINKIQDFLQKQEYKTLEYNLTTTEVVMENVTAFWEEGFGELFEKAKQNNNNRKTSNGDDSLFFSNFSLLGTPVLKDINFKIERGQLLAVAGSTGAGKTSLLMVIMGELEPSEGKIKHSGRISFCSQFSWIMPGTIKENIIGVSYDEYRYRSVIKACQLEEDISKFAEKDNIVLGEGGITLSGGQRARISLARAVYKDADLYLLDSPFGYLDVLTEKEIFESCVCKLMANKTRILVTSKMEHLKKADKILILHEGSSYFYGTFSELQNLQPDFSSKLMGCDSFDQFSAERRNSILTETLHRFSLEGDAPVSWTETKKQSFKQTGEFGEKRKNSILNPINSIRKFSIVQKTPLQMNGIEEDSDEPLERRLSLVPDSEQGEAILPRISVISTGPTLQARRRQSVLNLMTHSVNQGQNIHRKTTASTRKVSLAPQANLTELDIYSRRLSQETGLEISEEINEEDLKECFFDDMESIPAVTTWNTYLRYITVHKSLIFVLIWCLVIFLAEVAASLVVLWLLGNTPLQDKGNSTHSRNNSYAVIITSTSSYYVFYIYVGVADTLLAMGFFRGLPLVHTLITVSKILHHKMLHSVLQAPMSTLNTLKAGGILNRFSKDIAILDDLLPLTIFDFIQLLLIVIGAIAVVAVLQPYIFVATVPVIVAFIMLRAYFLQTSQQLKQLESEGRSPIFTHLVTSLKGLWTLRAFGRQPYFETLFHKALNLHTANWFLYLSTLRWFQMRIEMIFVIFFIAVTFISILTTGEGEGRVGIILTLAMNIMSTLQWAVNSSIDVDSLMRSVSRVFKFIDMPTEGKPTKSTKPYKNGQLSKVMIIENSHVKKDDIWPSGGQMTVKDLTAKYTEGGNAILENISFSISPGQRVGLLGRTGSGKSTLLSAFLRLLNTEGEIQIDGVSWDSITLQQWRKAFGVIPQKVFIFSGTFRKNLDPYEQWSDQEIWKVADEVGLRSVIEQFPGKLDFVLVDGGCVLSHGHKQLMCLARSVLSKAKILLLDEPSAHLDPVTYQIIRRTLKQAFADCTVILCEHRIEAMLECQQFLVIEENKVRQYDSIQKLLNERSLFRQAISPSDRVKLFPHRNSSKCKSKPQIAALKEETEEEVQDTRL
Nature of the test: FRT ion flux assay of F508del CFTR potentiation. Format: cell-based. The settings on record: FRT cells expressing F508del V470 CFTR, forskolin 20 uM, 27° C. pre-incubation. The method in brief: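 Potentiation read as YFP quench ~21 s after iodide buffer addition, as second/initial fluorescence ratio normalised between DMSO (0%) and reference potentiator (100%).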

Test [4] relates to G551 D patients. The settings on record: cited from earlier work.
The test system of test [5] is F508del homozygote patients. The settings on record: cited from earlier work.

T1 sequence (P13569 whole entry F508del/G551D): as the sequence (P13569 with tags, fused parts or gaps DEL508-508) above, with G550D counted along it
T2 sequence (P13569 with tags, fused parts or gaps DEL508-508): as the sequence (P13569 with tags, fused parts or gaps DEL508-508) above

Take `CC[C@@H](c1cn(-c2ccc(F)cc2F)nn1)n1cc(-c2cnc(C(F)(F)F)nc2)c2c(N)ncnc21` (single isomer, unassigned) [Example 161]: the 50% effective concentration (EC50) in test [1] amounted to 303 nM; in test [2], 10.9 nM; in test [3], 8.6 nM.

As for `CC[C@H](c1cn(-c2ccc(F)cc2F)nn1)n1cc(-c2cnc(C(F)(F)F)nc2)c2c(N)ncnc21` (single isomer, unassigned) [Example 162], the EC50 in test [1] was found to be 8450 nM; in test [2], 339 nM; in test [3], 363 nM.

As to `CCC(c1cn(-c2ccccc2F)nn1)n1cc(-c2cncnc2OC)c2c(N)ncnc21` (single isomer, unassigned; enantiomer 2) [Example 134, (+) 7-{1-[1-(2-Fluorophenyl)-1H-1,2,3-triazol-4-yl]propyl}-5-(4-methoxypyrimidin-5-yl)-7H-pyrrolo[2,3-d]pyrimidin-4-amine, enantiomer 2], the EC50 stood at 826 nM in test [1], 28.9 nM in test [2] and 13.4 nM in test [3].

Consider `COCC1CC1c1cn(Cc2cn(-c3ccccc3F)nn2)c2ncnc(N)c12` (stereo not shown) [Example 290, 7-{[1-(2-Fluorophenyl)-1H-1,2,3-triazol-4-yl]methyl}-5-[2-(methoxymethyl)cyclopropyl]-7H-pyrrolo[2,3-d]pyrimidin-4-amine], for which the 50% effective concentration (EC50) in test [2] turned out to be 997 nM; in test [3], 669 nM.

On to `Nc1ncnc2c1c(C1CC1)cn2C1(c2cn(-c3ccccc3F)nn2)CC1` [Example 295, 5-Cyclopropyl-7-{1-[1-(2-fluorophenyl)-1H-1,2,3-triazol-4-yl]cyclopropyl}-7H-pyrrolo[2,3-d]pyrimidin-4-amine], for which the EC50 in test [2] came out at 389 nM; in test [3], 185 nM.

As for `COc1nccnc1-c1cn(Cc2cn(-c3ccccc3F)nn2)c2ncnc(N)c12` [Example 296, 7-{[1-(2-Fluorophenyl)-1H-1,2,3-triazol-4-yl]methyl}-5-(3-methoxypyrazin-2-yl)-7H-pyrrolo[2,3-d]pyrimidin-4-amine], the figures for the EC50 in test [2] and in test [3] were 50.3 nM and 124 nM, respectively.

Take `COc1ncccc1-c1cn(C(c2cn(-c3ccccc3F)nn2)C2CC2)c2ncnc(N)c12` (stereo not shown) [Example 297, 7-{Cyclopropyl[1-(2-fluorophenyl)-1H-1,2,3-triazol-4-yl]methyl}-5-(2-methoxypyridin-3-yl)-7H-pyrrolo[2,3-d]pyrimidin-4-amine]: the EC50 in test [2] amounted to 40.1 nM; in test [3] it was 57.5 nM.

As for `COc1ncccc1-c1cn(C2(c3cn(-c4ccccc4F)nn3)CC2)c2ncnc(N)c12` [Example 298, 7-{1-[1-(2-Fluorophenyl)-1H-1,2,3-triazol-4-yl]cyclopropyl}-5-(2-methoxypyridin-3-yl)-7H-pyrrolo[2,3-d]pyrimidin-4-amine], the EC50 in test [2] was found to be 245 nM; in test [3], 180 nM.

`Nc1ncnc2c1c(-c1cccc3ncoc13)cn2Cc1cn(-c2ccccc2F)nn1` [Example 299, 5-(1,3-Benzoxazol-7-yl)-7-{[1-(2-fluorophenyl)-1H-1,2,3-triazol-4-yl]methyl}-7H-pyrrolo[2,3-d]pyrimidin-4-amine]: the EC50 in test [2] turned out to be 273 nM; in test [3], 235 nM.

Consider `Nc1ncnc2c1c(-c1ncco1)cn2Cc1cn(-c2ccccc2F)nn1` [Example 301, 7-{[1-(2-Fluorophenyl)-1H-1,2,3-triazol-4-yl]methyl}-5-(1,3-oxazol-2-yl)-7H-pyrrolo[2,3-d]pyrimidin-4-amine], for which the EC50 in test [2] was determined as 461 nM; in test [3], 360 nM.

For the molecule `CCC(c1cn(-c2ccccc2F)nn1)n1cc(-c2cncnc2OC)c2c(N)nc(C)nc21` (stereo not shown) [Example 302, 7-{1-[1-(2-Fluorophenyl)-1H-1,2,3-triazol-4-yl]propyl}-5-(4-methoxypyrimidin-5-yl)-2-methyl-7H-pyrrolo[2,3-d]pyrimidin-4-amine], the EC50 came to 297 nM in test [2] and 232 nM in test [3].

As for `COCC(c1cn(-c2ccccc2F)nn1)n1cc(-c2cccnc2OC)c2c(N)ncnc21` (stereo not shown) [Example 314, 7-{1-[1-(2-Fluorophenyl)-1H-1,2,3-triazol-4-yl]-2-methoxyethyl}-5-(2-methoxypyridin-3-yl)-7H-pyrrolo[2,3-d]pyrimidin-4-amine], the results for the EC50 in test [2] and in test [3] were 358 nM and 230 nM, respectively.

For `COc1ncncc1-c1cn(C(c2cn(-c3ccccc3F)nn2)C2COC2)c2ncnc(N)c12` (stereo not shown) [Example 315, 7-{[1-(2-Fluorophenyl)-1H-1,2,3-triazol-4-yl](oxetan-3-yl)methyl}-5-(4-methoxypyrimidin-5-yl)-7H-pyrrolo[2,3-d]pyrimidin-4-amine], the EC50 in test [2] is 2930 nM; in test [3] it was 933 nM.

Take `Nc1ncnc2c1c(C1CC1)cn2Cc1cnn(-c2ccccc2F)c1` [Example 317, 5-Cyclopropyl-7-{[1-(2-fluorophenyl)-1H-pyrazol-4-yl]methyl}-7H-pyrrolo[2,3-d]pyrimidin-4-amine]: the EC50 in test [2] came out at 87 nM; in test [3], 129 nM.

Regarding `CNc1ncnc2c1c(-c1ccc(Cl)cc1)cn2C(C)c1cn(-c2ccccc2F)nn1` (stereo not shown) [Example 318, 5-(4-Chlorophenyl)-7-{1-[1-(2-fluorophenyl)-1H-1,2,3-triazol-4-yl]ethyl}-N-methyl-7H-pyrrolo[2,3-d]pyrimidin-4-amine], the half-maximal effective concentration (EC50) came out at 397 nM in test [2] and 2990 nM in test [3].

Take `CC(C)(C)c1cc(C(C)(C)C)c(NC(=O)c2c[nH]c3ccccc3c2=O)cc1O` [Kalydeco, ivacaftor]: in test [4], the “frequency of pulmonary exacerbations” value was “reduced the frequency of pulmonary exacerbations”; the “lung function, percent predicted FEV1 increased” value is given as 10-13%; the weight entry is reported as “allowed weight gain”. In test [5], the improvement on monotherapy entry is recorded as “did not lead to any appreciable improvement”.

The values are drawn from patent publication US12612409B2, “Pyrrolopyrimidines as CFTR potentiators” (Cystic Fibrosis Foundation, priority 2016, dated 2026).
